According to US6605642B2, “Inhibitors of formation of advanced glycation endproducts (AGES)” (City of Hope, priority 1999, dated 2003):

Legend:
Format in all cases: biochemical
G.K. peptide = assay: N-Acetyl-Glycyl-Lysine Methyl Ester (G.K. Peptide)-Ribose assay; details: 24 hours at 37° C., fluorescence 330/415 nm; for Percent Inhibition in the G.K.-Ribose Assay: 1 millimole/L inhibitor
Method: Evaluation of the late glycation products (AGEs), and AGE-inhibition by the new inhibitor compounds was tested by incubation of G.K. peptide in ribose in the presence or the absence of the agent, followed by determination of chromophores generated in the course of glycation and AGE formation through determination of their specific fluorescence. The Nagaraj et al. (1996) method used to evaluate the ability of the compounds of the present invention to inhibit the crosslinking of N-acetylglycyl-lysine methyl ester in the presence of ribose was as follows: Stock Solutions: 0.5 M sodium phosphate buffer pH 7.4 containing NaN3 0.2 g/L GK peptide (Sigma) 80 mg/mL in 0.5 M sodium phosphate buffer pH 7.4 Ribose 800 mM (120 mg/mL) in 0.5 M phosphate buffer Triplicate samples of equal volumes (0.1 mL) of the 3 stock solutions were mixed together, filtered through a 0.2 micron filter (Corning) and incubated under aseptic conditions for 24 hours at 37° C. The inhibitor compounds were added to a final concentration of 1 millimole/L. At the end of the incubation period, samples were analyzed for their specific fluorescence (excitation, 330 nm; emission, 415 nm). The % inhibition by different concentrations of inhibitor was calculated as described above. Aminoguanidine was used at 50 mM as a positive control. […] The results of this assay indicate that all ten compounds investigated here have strong inhibitory effects and block specific fluorescence of proteins AGE in these separate determinations.

[1] = biological target: T1, hemoglobin (HbA1C formation) (Homo sapiens, UniProt P68871+P69905); assay: Hemoglobin-δ-Gluconolactone (δ-Glu) assay, early stage glycation; details: 1 millimole/L inhibitor, δ-Glu treated whole blood, 16 hours at 37° C.
T1 construct: δ-Glu, an oxidized analogue of glucose, can react rapidly with hemoglobin within the red cells; from tissue; host or cells: fresh whole blood (red blood cells) from normal volunteers
Method: The δ-Glu assay is a specific method for investigation of inhibitors of the early stage of glycation. Evaluation of early glycation products (Amadori) formation on hemoglobin (HbA1C) is performed by incubating red blood cells with an oxidized form of glucose in the presence and the absence of the inhibitor compound followed by determination of HbA1C in the test versus the control (Rahbar and Nadler., 1999). […] By contrast, glucose requires weeks for an equivalent reaction to occur. We have used this finding to devise an assay method to measure early stage glycation of hemoglobin (Amadori product) and an assay to evaluate the ability of an inhibitor to inhibit HbA1C formation. Briefly, fresh blood was drawn in potassium-EDTA and prepared for incubation within 30 minutes of collection by mixing 200 μL of blood with 40 μL of either phosphate buffered-saline (PBS), pH 7.4, alone, PBS containing 50 millimoles/L δ-Glu (Sigma), or PBS containing 50 millimoles/L δ-Glu plus 1 millimole/L inhibitor. After incubation for 16 hours at 37° C., the percentage of glycated hemoglobin present was determined. The percentage of glycated Hb (HbA1C) was determined using a dedicated ion-exchange HPLC system (BIORAD DIAMAT). Blood samples were analyzed in triplicate. The % inhibition of HbA1C formation by the compound was calculated according to the following formula: […]
where A is HbA1C concentration in the baseline control tube not treated with δ-Glu, B is the HbA1C concentration in blood incubated with δ-Glu, C is the HbA1C content of the test tube treated both with δ-Glu and the inhibitor compound.
The amount of (HbA1C) formation using δ-Glu treated whole blood from normal volunteers using 1 millimole/L of the compounds is shown in FIG. 1. Levels of HbA1C in the δ-Glu treated blood is twice as high as the baseline control. Various inhibitors (compounds LR93-LR102) show different levels of HbA1C depending on their inhibitory potencies.

BSA = biological target: T2, BSA (Bos taurus, UniProt P02769); assay: BSA-Glucose assay, glucose-mediated development of fluorescence of BSA; details: 7 days at 37° C., fluorescence 330/410 nm; for Percent Inhibition in the BSA-Glucose Assay: 1 millimole/L inhibitor
T2 construct: BSA (fraction V, essentially fatty acid free, low endotoxin) from Sigma; purchased Sigma
Method: This test is used to evaluate the ability of the inhibitors to inhibit glucose-mediated development of fluorescence of BSA (Ikeda et al., 1996). Triplicate samples of BSA (fraction V, essentially fatty acid free, low endotoxin) from Sigma 50 mg/mL and 800 mM glucose (144 mg/mL) in […] phosphate buffer pH 7.4 containing NaN3 0.2 g/L was incubated under aseptic conditions at 37° C. for 7 days in the presence or absence of various concentrations of the compounds. After 7 days of incubation each sample was examined for the development of specific fluorescence (excitation, 330 nm; emission, 410 nm). The % inhibition of AGE formation in the test sample versus control was calculated for each inhibitor compound. Aminoguanidine (50 mM) was used as a positive control.
This assay method is mostly for the inhibitors of late glycation and AGE formation (post-Amadori). The results obtained by this assay show all ten compounds investigated here have strong inhibitory effects on post-Amadori glycation, AGE formation and AGE crosslinking.

[2] = biological target: T3, collagen-AGE-BSA crosslinking (Bos taurus, UniProt P02769); assay: ELISA assay, crosslinking of AGE-BSA to rat tail-tendon-collagen coated plate; details: for Inhibition of AGE-protein crosslinking (in words): ELISA, FIGS. 4A-C, 0.1-0.5 mM; for Effectiveness relative to pyridoxamine, inhibition of AGE-protein-crosslinking: compared with pyridoxamine (Khalifah et al., 1999)
T3 construct: purchased Becton Dickinson
Method: A special ELISA technique (Al-abed et al., 1999) was used to evaluate the ability of the compounds being studied to inhibit the crosslinking of glycated-BSA (AGE-BSA) to a rat tail-tendon-collagen coated 96 well plate (Biocoat Cell Environment, Becton Dickinson). Crosslinking of AGE-BSA to a rat tail-tendon-collagen coated plate was performed with and without the testing compound at the desired concentrations. The uncross-linked AGE-BSA was then removed by washing the wells. The AGE-BSA crosslinked to the tail-tendon-collagen coated plate was then quantified by a polyclonal antibody raised against AGE-RNase in our laboratory. Positive results in the assay indicate that the inhibitor is capable of reducing the amount of AGE-BSA which crosslinks with collagen. Aminoguanidine was used as positive control.

T3 sequence (P02769 25-607): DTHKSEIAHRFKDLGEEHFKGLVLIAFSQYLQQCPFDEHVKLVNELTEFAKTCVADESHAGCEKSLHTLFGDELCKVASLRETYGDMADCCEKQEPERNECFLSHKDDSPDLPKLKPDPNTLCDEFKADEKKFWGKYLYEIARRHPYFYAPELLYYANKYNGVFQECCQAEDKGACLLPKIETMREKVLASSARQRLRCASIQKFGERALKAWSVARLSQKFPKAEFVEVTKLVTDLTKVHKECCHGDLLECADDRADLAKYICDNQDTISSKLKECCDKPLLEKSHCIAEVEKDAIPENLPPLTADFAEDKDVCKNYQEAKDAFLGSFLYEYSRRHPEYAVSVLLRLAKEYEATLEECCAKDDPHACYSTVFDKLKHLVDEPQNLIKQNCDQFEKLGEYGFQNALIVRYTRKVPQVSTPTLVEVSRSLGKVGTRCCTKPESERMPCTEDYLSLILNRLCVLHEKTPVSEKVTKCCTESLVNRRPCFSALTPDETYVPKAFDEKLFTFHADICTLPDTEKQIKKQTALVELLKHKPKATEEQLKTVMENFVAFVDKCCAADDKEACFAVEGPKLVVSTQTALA
T2 sequence (P02769 25-607): as above
T1 sequence (P68871 2-147 limits assumed): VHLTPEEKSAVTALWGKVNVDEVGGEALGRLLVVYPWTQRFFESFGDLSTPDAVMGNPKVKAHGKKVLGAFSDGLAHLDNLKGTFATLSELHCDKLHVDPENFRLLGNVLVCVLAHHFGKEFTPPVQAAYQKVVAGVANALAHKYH
T1 sequence (P69905 2-142 limits assumed): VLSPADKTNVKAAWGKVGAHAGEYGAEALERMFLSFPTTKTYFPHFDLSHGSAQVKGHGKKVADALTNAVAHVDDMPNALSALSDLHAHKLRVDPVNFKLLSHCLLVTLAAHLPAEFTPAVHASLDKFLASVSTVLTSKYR

Row | Percent Inhibition of HbA1c formation in the δ-Glu Assay [1] [%] | inhibition at 50000 µM (BSA; aminoguanidine 50 mM, read-out: Percent Inhibition in the BSA-Glucose Assay (positive control)) [%] | Percent Inhibition in the BSA-Glucose Assay (BSA) [%] | Effectiveness relative to pyridoxamine, inhibition of AGE-protein-crosslinking [2] [times] | SMILES | Percent Inhibition in the G.K.-Ribose Assay (positive control) (G.K. peptide; aminoguanidine 50 mM) [%] | Percent Inhibition in the G.K.-Ribose Assay (G.K. peptide) [%] | Inhibition of AGE-protein crosslinking (in words) [2]
1 | 12.1 | 74 | – | – | N=C(N)NN [AG, aminoguanidine, reference compound] | 67 | – | –
2 | 49.2 | – | 35 | – | CC(C)(Oc1ccc(Cl)cc1)C(=O)NC1(C(=O)O)CCCCC1 [LR93] | – | 42.8 | –
3 | 28.5 | – | 26.8 | – | CC(C)(Oc1ccc(NC(=O)Nc2cc(Cl)cc(Cl)c2)cc1)C(=O)N1CCCCC1C(=O)O (stereo not shown) [LR94] | – | 33.7 | –
4 | 61.9 | – | 34 | – | CC(C)C[C@H](NC(=O)C(C)(C)Oc1ccc(NC(=O)Nc2cc(Cl)cc(Cl)c2)cc1)C(=O)O [LR95] | – | 29.5 | –
5 | 57.1 | – | 30 | 2 to 3 | COC(=O)CC[C@H](NC(=O)C(C)(C)Oc1ccc(NC(=O)Nc2cc(Cl)cc(Cl)c2)cc1)C(=O)O [LR96] | – | 42.4 | strong inhibitors of AGE-protein crosslinking
6 | 36.5 | – | 26.2 | – | CC(C)(Oc1ccc(NC(=O)Nc2cc(Cl)cc(Cl)c2)cc1)C(=O)NCCCC(=O)O [LR97] | – | 33.3 | –
7 | 42.8 | – | 26.7 | – | CC(C)(Oc1ccc(NC(=O)Nc2cc(Cl)cc(Cl)c2)cc1)C(=O)NCC(=O)O [LR98] | – | 37.3 | –
8 | 53.9 | – | 30.9 | 2 to 3 | CC(C)(Oc1ccc(NC(=O)Nc2cc(Cl)cc(Cl)c2)cc1)C(=O)Nc1ccc(C(=O)O)cc1 [LR99] | – | 39.5 | strong inhibitors of AGE-protein crosslinking
9 | 52.4 | – | 31.9 | – | CC(C)(Oc1ccc(NC(=O)Nc2cc(Cl)cc(Cl)c2)cc1)C(=O)NC1(C(=O)O)CCCC1 [LR100] | – | 28.5 | –
